According to PMC7366380, “Discovery of a Potent and Selective Covalent Inhibitor and Activity-Based Probe for the Deubiquitylating Enzyme UCHL1, with Antifibrotic Activity” (Journal of the American Chemical Society, 2020):
Values joined by “and” are separate entries in the source; they are usually repeats but may differ in a detail not shown here. Identical values can stand only once. Each block holds one compound with its values, some of them ahead of it.

Columns and labels:
UCHL1 [1] = target: T1, UCHL1 (Homo sapiens, UniProt P09936); assay: UCHL1 inhibitor kinetic analysis (Ub-AMC fluorescence intensity); type: biochemical; parameters: rapidly targets endogenous UCHL1 in cells; endogenous in cells; host or cells: HEK293; conditions: UCHL1 3 nM, Ub-AMC 130 nM; read-out: kobs/I
T1 sequence (P09936 1-223): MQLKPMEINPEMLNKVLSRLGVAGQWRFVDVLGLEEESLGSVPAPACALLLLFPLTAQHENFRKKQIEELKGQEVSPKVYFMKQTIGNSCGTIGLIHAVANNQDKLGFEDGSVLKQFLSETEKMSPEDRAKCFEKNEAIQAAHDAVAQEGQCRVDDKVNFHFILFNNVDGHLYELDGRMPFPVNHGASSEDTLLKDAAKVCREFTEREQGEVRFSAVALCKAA

UCHL1 [2] = target: T1, UCHL1; assay: ABP 2 labeling in HEK293 cells, AzTB ligation, in-gel fluorescence; conditions: HEK293, time course
EIF3F = EIF3F (Homo sapiens, UniProt O00303); assay: Quantitative chemical proteomic profiling of ABP 2 in HEK293 cells: EIF3F; conditions: for Log2 reporter intensity values (Log2FC, DMSO substract): EIF3F, listed as ABP 2
UCHL1 [3] = target: T1, UCHL1; assay: Quantitative chemical proteomic profiling of ABP 2 in HEK293 cells (AzRB enrichment, TMT): UCHL1; conditions: for Log2 reporter intensity values (Log2FC, DMSO substract): UCHL1, listed as ABP 2
FGFR2 = FGFR2 (Homo sapiens, UniProt P21802); assay: ABP 2 labeling in HEK293 cells, pulldown and FGFR2 immunoblotting; conditions: HEK293, any concentration up to 2 μM
[4] = tested on: HEK293 cells whole proteome; assay: Whole proteome analysis (no enrichment) of HEK293 cells treated with ABP 2, TMT; type: cell-based, human
PSMD14 = PSMD14 (Homo sapiens, UniProt O00487); assay: Quantitative chemical proteomic profiling of ABP 2 in HEK293 cells: PSMD14; conditions: for Log2 reporter intensity values (Log2FC, DMSO substract): PSMD14, listed as ABP 2
[5] = tested on: UCHL3, UCHL5, and DUBs from other families; assay: ABP 2 labeling in HEK293 cells, pulldown and immunoblotting of other DUBs; conditions: HEK293, 1 h, pulldown, immunoblot
[6] = tested on: FLAG-UCHL1 (WT, C90A, C90S); conditions: HeLa cells overexpressing FLAG-UCHL1, 1 h
UCHL3 = target: T2, UCHL3 (Homo sapiens, UniProt P15374); assay: Quantitative chemical proteomic profiling of ABP 2 in HEK293 cells: UCHL3; conditions: for Log2 reporter intensity values (Log2FC, DMSO substract): UCHL3, listed as ABP 2
T2 sequence (P15374 1-230): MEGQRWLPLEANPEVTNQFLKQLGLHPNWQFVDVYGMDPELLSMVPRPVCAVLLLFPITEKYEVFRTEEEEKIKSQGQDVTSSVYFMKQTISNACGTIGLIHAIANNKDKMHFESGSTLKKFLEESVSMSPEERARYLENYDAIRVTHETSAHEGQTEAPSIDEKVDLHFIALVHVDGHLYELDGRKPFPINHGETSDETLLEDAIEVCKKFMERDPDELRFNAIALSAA

endogenous UCHL1 = target: T3, endogenous UCHL1 (Homo sapiens, UniProt P09936); assay: ABP 2 target engagement in EA.hy926 and A549 cells (in-gel fluorescence, immunoblot); type: cell-based; conditions: 3 h
T3 construct: endogenous in cells; host or cells: EA.hy926 and A549
Text: Figure S13. ABP 2 target engagement in A549 and EA.hy926 cells. […]
labeled proteins ligated to AzTB capture reagent. (a) Labeled proteins were separated by SDS-PAGE and visualised by in-gel fluorescence. (b) Labeled proteins were enriched by NeutrAvidin magnetic beads. Total lysate (TL), supernatant (SN) an d pulldown (PD) samples […]
Preparation of UCHL1 overexpression cell lysates
After cell lysis and CuAAC […]
relative to the sample volume.
SDS-PAGE and in-gel fluorescence imaging
The protein samples were separated
Biotin affinity enrichment for immunoblot analysis […]
re-suspended as described previously.
Proteins were separated by SDS-
Sample preparation for MS-based proteomic analysis

in vitro = conditions: human
[7] = tested on: primary human bronchial fibroblasts from IPF patients
[8] = 200 nM, 180 min, replicates A,C
[9] = HEK293, 20 nM vs DMSO, 1 h, enrichment, TMT, n=3
[10] = HEK293, 200 nM vs DMSO, 1 h, enrichment, TMT, n=3
[11] = HEK293, 2 nM vs DMSO, 1 h, enrichment, TMT, n=3
[12] = whole proteome, no enrichment, HEK293, 0.02 μM vs DMSO, 1 h
[13] = whole proteome, no enrichment, HEK293, 0.2 μM vs DMSO, 1 h
[14] = whole proteome, no enrichment, HEK293, 2 μM vs DMSO, 1 h

Sequence of FGFR2 (P21802 22-821): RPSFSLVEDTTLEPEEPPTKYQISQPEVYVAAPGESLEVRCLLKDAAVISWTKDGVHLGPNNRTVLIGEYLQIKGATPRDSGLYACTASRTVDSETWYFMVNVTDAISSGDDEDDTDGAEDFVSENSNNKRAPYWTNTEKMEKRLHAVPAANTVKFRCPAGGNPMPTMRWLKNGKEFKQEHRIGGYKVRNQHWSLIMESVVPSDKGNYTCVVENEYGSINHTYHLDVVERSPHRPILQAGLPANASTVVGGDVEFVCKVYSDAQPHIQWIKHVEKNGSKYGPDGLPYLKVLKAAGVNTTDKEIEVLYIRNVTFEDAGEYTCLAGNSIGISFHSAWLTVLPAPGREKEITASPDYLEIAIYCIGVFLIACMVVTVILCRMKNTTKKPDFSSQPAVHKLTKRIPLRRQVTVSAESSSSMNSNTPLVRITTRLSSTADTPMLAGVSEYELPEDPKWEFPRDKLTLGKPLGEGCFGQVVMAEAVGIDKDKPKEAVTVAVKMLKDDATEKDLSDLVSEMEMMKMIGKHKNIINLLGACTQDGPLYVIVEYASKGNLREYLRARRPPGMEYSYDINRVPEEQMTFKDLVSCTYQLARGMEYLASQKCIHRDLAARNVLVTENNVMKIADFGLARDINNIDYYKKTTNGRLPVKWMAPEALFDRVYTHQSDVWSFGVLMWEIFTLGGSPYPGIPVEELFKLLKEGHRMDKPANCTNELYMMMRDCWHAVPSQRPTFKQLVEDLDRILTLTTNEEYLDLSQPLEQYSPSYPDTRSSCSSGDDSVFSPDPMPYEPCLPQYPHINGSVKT

kinact/KI (UCHL1 [1]): 7400 M⁻¹ s⁻¹
Compound: N#CN1CCC[C@H]1C(=O)N1CCc2c(-c3c[nH]c4ncccc34)cccc21 [Compound 1]

time to maximal labeling (UCHL1 [2]): ≤ 60 min | Log2 reporter intensity values (Log2FC, DMSO substract) (EIF3F; 2 nM, 60 min, replicates A-C): 0.2006 and 0.08743 and 0.3363 | Log2 reporter intensity values (Log2FC, DMSO substract) (EIF3F; 20 nM, 10 min, replicates B,C): 0.2292 and 0.2562 | Log2 reporter intensity values (Log2FC, DMSO substract) (EIF3F; 20 nM, 60 min, replicates A-C): 0.2037 and 0.07421 and -0.06904 | Log2 reporter intensity values (Log2FC, DMSO substract) (EIF3F; 20 nM, 180 min, replicates A-C): 0.329 and 0.1016 and 0.09094 | Log2 reporter intensity values (Log2FC, DMSO substract) (EIF3F; 200 nM, 10 min, replicates B,C): 0.1208 and 0.2271 | Log2 reporter intensity values (Log2FC, DMSO substract) (EIF3F; 200 nM, 60 min, replicates A-C): 0.222 and -0.03463 and 0.3157 | Log2 reporter intensity values (Log2FC, DMSO substract) (EIF3F; [8]): 0.2814 and 0.1468 | Log2 t-test Difference, EIF3F, 20 nM (EIF3F; [9]): 0.06962 | Log2 t-test Difference, EIF3F, 200 nM (EIF3F; [10]): 0.1677 | Log2 t-test Difference, UCHL1, 2 nM (UCHL1 [3]; [11]): 1.208 | Log2 t-test Difference, UCHL1, 20 nM (UCHL1 [3]; [9]): 2.871 | Log2 t-test Difference, UCHL1, 200 nM (UCHL1 [3]; [10]): 3.757 | UCHL1 enrichment (chemical proteomics) (UCHL1 [3]; HEK293, 2, 20 or 200 nM, 10, 60 or 180 min): significantly enriched | Log2 reporter intensity values (Log2FC, DMSO substract) (UCHL1 [3]; 2 nM, 60 min, replicates A-C): 1.19 and 1.075 | Log2 reporter intensity values (Log2FC, DMSO substract) (UCHL1 [3]; 20 nM, 10 min, replicates B,C): 2.249 and 2.237 | Log2 reporter intensity values (Log2FC, DMSO substract) (UCHL1 [3]; 20 nM, 60 min, replicates A-C): 3.049 and 2.943 and 2.622 | Log2 reporter intensity values (Log2FC, DMSO substract) (UCHL1 [3]; 20 nM, 180 min, replicates A-C): 2.8835 and 2.817 and 2.539 | Log2 reporter intensity values (Log2FC, DMSO substract) (UCHL1 [3]; 200 nM, 10 min, replicates B,C): 3.8701 and 3.284 | Log2 reporter intensity values (Log2FC, DMSO substract) (UCHL1 [3]; 200 nM, 60 min, replicates A-C): 3.775 and 4.082 and 3.414 | Log2 reporter intensity values (Log2FC, DMSO substract) (UCHL1 [3]; [8]): 3.588 and 3.369 | FGFR2 enrichment by pulldown and immunoblotting (FGFR2): barely detectable | Log2 t-test Difference, PSMD14, 2 nM (PSMD14; [11]): 0.06988 | Log2 t-test Difference, PSMD14, 20 nM (PSMD14; [9]): -0.004272 | Log2 t-test Difference, PSMD14, 200 nM (PSMD14; [10]): 0.1265 | Log2 reporter intensity values (Log2FC, DMSO substract) (PSMD14; 2 nM, 60 min, replicates A-C): 0.2334 and 0.06155 and -0.08529 | Log2 reporter intensity values (Log2FC, DMSO substract) (PSMD14; 20 nM, 10 min, replicates B,C): -0.01968 and 0.08775 | Log2 reporter intensity values (Log2FC, DMSO substract) (PSMD14; 20 nM, 60 min, replicates A-C): -0.03468 and 0.06905 and -0.04719 | Log2 reporter intensity values (Log2FC, DMSO substract) (PSMD14; 20 nM, 180 min, replicates A-C): 0.05966 and 0.0953 and 0.01379 | Log2 reporter intensity values (Log2FC, DMSO substract) (PSMD14; 200 nM, 10 min, replicates B,C): 0.3381 and 0.09077 | Log2 reporter intensity values (Log2FC, DMSO substract) (PSMD14; 200 nM, 60 min, replicates A-C): 0.2255 and 0.1628 and -0.008927 | Log2 reporter intensity values (Log2FC, DMSO substract) (PSMD14; [8]): 0.02414 and 0.2255 | UCHL3 enrichment (chemical proteomics) (UCHL3; HEK293, higher concentrations): marginal enrichment | Log2 reporter intensity values (Log2FC, DMSO substract) (UCHL3; 2 nM, 60 min, replicates A-C): 0.05364 and -0.07312 and 0.4093 | Log2 reporter intensity values (Log2FC, DMSO substract) (UCHL3; 20 nM, 10 min, replicates B,C): 0.1568 and 0.3164 | Log2 reporter intensity values (Log2FC, DMSO substract) (UCHL3; 20 nM, 60 min, replicates A-C): 0.5413 and 1.009 and 0.8836 | Log2 reporter intensity values (Log2FC, DMSO substract) (UCHL3; 20 nM, 180 min, replicates A-C): 1.082 and 1.256 and 0.9512 | Log2 reporter intensity values (Log2FC, DMSO substract) (UCHL3; 200 nM, 10 min, replicates B,C): 0.8647 and 0.7273 | Log2 reporter intensity values (Log2FC, DMSO substract) (UCHL3; 200 nM, 60 min, replicates A-C): 1.566 and 2.128 and 1.659 | Log2 reporter intensity values (Log2FC, DMSO substract) (UCHL3; [8]): 2.355 and 2.225 | profiling of endogenous UCHL1 activity in other cell types (endogenous UCHL1): excellent selectivity
Compound: C#Cc1cnc2[nH]cc(-c3cccc4c3CCN4C(=O)[C@@H]3CCCN3C#N)c2c1 [Compound 2]
abundance change in whole proteome analysis ([4]; HEK293, 20, 200 or 2000 nM, 60 min): No significant abundance change | Log2 t-test Difference, AAAS, ABP 2 -0.02 μM [4, 12]: 0.04017 | Log2 t-test Difference, AACS, ABP 2 -0.02 μM [4, 12]: -0.01983 | Log2 t-test Difference, AAGAB, ABP 2 -0.02 μM [4, 12]: 0.05728 | Log2 t-test Difference, AAMP, ABP 2 -0.02 μM [4, 12]: -0.03986 | Log2 t-test Difference, AAAS, ABP 2 -0.2 μM [4, 13]: -0.001777 | Log2 t-test Difference, AACS, ABP 2 -0.2 μM [4, 13]: 0.03866 | Log2 t-test Difference, AAGAB, ABP 2 -0.2 μM [4, 13]: 0.002598 | Log2 t-test Difference, AAMP, ABP 2 -0.2 μM [4, 13]: 0.04194 | Log2 t-test Difference, AAAS, ABP 2 -2 μM [4, 14]: 0.07218 | Log2 t-test Difference, AACS, ABP 2 -2 μM [4, 14]: 0.09255 | Log2 t-test Difference, AAGAB, ABP 2 -2 μM [4, 14]: 0.1494 | Log2 t-test Difference, AAMP, ABP 2 -2 μM [4, 14]: -0.01217 | labeling of UCHL3, UCHL5, and DUBs from other families [5]: minimal or no detectable labeling | labeling of WT versus C90A/C90S UCHL1 [6]: only WT UCHL1 is labeled

Compound: CC(=O)O/N=C1\C(=O)N(Cc2cc(Cl)ccc2Cl)c2ccc(Cl)cc21 [LDN-57444, reference compound]
EC50 at 3 days (in vitro): ~9.2 µM | cytotoxicity (in words) [7]: increased cytotoxicity
